Results published in patent publication US10561736B1, “Apoptosis inhibitor formulations for prevention of hearing loss” (Spiral Therapeutics, Inc., priority 2019, dated 2020).

How the values were obtained:
[1] = tested on: panel of receptors (44 GPCR and 4 non-GPCR), 4 ion channels, and 3 transporters; experiment: off-target selectivity panel; assay type: binding; details: 10 μM
Protocol: (§1) To identify off-target activities of LPT99, its selectivity against a panel of receptors (44 G-protein-coupled receptors [GPCR] and 4 non-GPCR), 4 ion channels, and 3 transporters were analyzed. The cell line, HEI-OC1 (house ear institute organ of Corti 1), which expresses several characteristic markers of the organ of Corti sensory cells (Kalinec, et al., Audiol. Neurootol. 2003, 8(4), 177-89), was used to evaluate the efficacy of LPT99 in preventing apoptosis due to […]. Cells were pre-incubated with LPT99, followed by […] for 24 hours.
(§2) For 14 of the tested targets-adenosine receptor 3 (A3); cholecystokinin: cholecystokinin receptor 1 (CCK1); melatonin receptor (MT1); neurokinin (NK2 and NK3); opioid (kOP and mOP); serotonin receptors (5HT-1A, 5HT-2A, 5HT-2B and 5HT-7); and vasopressin (ViA; Na+channel site 2 and C1-GABA-gated channel)—the LPT99 affinity was >50%. At 1 μM, the inhibition of 13 of these targets was <50%, indicating a very low affinity with LPT99.

[2] = target: serotonin receptor 5HT-2A (Homo sapiens, UniProt P28223); experiment: off-target selectivity panel; assay type: binding
Sequence of serotonin receptor 5HT-2A (P28223 whole entry): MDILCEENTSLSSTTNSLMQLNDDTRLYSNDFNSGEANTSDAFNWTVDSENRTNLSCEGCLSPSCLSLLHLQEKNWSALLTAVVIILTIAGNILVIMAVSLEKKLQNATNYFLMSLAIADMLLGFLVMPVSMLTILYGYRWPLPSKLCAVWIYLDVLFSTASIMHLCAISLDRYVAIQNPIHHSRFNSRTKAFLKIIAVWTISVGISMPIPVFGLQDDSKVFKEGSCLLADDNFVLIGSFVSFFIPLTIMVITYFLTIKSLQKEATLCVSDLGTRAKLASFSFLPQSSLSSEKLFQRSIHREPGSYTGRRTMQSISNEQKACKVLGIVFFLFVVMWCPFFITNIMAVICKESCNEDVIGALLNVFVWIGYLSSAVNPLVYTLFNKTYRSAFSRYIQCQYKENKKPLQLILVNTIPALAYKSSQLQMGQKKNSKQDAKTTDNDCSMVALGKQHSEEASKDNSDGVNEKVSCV
Protocol: as §1, §2

[3] = target: serotonin receptor 5HT-2B (Homo sapiens, UniProt P41595); experiment: off-target selectivity panel; assay type: binding
Sequence of serotonin receptor 5HT-2B (P41595 whole entry): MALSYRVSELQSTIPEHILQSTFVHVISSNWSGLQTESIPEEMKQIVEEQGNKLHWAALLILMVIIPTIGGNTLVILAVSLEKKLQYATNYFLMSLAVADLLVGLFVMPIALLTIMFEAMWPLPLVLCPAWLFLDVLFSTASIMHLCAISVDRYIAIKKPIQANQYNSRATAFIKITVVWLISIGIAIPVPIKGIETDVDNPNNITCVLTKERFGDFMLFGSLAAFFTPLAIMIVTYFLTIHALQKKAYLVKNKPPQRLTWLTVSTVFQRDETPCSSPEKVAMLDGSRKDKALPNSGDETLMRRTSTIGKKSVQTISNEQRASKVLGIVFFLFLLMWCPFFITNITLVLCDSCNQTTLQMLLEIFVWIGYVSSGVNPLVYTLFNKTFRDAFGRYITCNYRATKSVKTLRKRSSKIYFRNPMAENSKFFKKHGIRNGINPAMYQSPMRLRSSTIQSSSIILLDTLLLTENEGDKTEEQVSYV
Protocol: as §1, §2

[4] = tested on: C1-GABA-gated channel; experiment: off-target selectivity panel; assay type: binding
Protocol: as §1, §2

[5] = tested on: Na+channel site 2; experiment: off-target selectivity panel; assay type: binding
Protocol: as §1, §2

[6] = target: adenosine receptor 3 (A3) (Homo sapiens, UniProt P0DMS8); experiment: off-target selectivity panel; assay type: binding
Sequence of adenosine receptor 3 (A3) (P0DMS8 whole entry): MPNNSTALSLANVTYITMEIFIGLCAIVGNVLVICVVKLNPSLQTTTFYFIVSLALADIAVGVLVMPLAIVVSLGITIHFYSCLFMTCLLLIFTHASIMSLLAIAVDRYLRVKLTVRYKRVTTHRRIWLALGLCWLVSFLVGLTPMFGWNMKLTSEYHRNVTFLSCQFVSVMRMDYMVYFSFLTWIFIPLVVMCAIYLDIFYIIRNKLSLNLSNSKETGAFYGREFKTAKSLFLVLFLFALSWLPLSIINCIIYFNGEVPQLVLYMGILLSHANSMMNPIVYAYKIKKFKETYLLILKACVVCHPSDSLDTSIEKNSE
Protocol: as §1, §2

[7] = target: neurokinin (NK2) (Homo sapiens, UniProt P21452); experiment: off-target selectivity panel; assay type: binding
Protocol: as §1, §2

[8] = target: melatonin receptor (MT1) (Homo sapiens, UniProt P48039); experiment: off-target selectivity panel; assay type: binding
Sequence of melatonin receptor (MT1) (P48039 whole entry): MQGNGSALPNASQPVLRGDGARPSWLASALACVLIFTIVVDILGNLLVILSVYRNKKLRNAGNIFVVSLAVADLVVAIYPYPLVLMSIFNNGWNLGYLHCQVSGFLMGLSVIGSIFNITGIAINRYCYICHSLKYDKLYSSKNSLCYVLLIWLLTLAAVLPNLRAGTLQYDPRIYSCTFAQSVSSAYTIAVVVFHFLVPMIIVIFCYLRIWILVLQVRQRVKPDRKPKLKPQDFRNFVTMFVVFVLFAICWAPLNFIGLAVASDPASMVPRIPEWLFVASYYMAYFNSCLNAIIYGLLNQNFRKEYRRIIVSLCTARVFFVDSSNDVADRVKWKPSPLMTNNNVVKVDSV
Protocol: as §1, §2

[9] = target: serotonin receptor 5HT-7 (Homo sapiens, UniProt P34969); experiment: off-target selectivity panel; assay type: binding
Sequence of serotonin receptor 5HT-7 (P34969 whole entry): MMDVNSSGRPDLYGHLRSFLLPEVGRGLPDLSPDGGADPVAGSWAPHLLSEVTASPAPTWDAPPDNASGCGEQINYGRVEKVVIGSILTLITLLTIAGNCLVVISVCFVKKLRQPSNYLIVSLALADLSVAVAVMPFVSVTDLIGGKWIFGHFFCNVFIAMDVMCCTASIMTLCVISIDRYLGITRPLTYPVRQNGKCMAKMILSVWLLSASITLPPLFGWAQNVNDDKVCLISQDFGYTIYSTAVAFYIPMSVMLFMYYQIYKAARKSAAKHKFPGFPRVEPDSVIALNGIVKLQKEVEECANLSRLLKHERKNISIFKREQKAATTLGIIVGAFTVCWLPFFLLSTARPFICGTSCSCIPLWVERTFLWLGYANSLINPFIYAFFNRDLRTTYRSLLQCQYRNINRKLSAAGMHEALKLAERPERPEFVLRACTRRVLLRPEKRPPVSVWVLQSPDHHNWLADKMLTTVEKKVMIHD
Protocol: as §1, §2

[10] = target: opioid (kOP) (Homo sapiens, UniProt P41145); experiment: off-target selectivity panel; assay type: binding
Sequence of opioid (kOP) (P41145 whole entry): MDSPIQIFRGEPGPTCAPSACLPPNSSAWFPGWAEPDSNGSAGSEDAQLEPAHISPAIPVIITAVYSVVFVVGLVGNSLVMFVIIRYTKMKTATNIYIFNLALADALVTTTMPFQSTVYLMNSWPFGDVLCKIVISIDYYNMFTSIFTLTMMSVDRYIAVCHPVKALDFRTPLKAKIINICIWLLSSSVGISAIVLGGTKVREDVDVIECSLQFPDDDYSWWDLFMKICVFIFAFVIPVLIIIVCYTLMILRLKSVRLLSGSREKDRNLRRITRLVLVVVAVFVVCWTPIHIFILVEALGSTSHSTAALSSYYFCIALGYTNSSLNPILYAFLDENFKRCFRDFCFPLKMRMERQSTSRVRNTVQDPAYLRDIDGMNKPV
Protocol: as §1, §2

[11] = target: vasopressin (ViA) (Homo sapiens, UniProt P37288); experiment: off-target selectivity panel; assay type: binding
Sequence of vasopressin (ViA) (P37288 whole entry): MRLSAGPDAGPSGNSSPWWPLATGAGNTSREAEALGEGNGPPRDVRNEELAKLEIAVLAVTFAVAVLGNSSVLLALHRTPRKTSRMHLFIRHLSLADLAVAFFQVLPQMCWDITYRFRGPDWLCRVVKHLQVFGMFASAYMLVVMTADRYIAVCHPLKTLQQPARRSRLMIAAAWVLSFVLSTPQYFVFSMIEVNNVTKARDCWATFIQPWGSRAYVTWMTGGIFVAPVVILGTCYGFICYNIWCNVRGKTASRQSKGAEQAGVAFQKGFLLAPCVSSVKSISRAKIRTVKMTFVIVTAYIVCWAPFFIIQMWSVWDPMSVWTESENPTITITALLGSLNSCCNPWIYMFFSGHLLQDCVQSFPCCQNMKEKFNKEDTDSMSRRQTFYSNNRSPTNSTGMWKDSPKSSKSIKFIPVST
Protocol: as §1, §2

[12] = target: neurokinin (NK3) (Homo sapiens, UniProt P29371); experiment: off-target selectivity panel; assay type: binding
Sequence of neurokinin (NK3) (P29371 whole entry): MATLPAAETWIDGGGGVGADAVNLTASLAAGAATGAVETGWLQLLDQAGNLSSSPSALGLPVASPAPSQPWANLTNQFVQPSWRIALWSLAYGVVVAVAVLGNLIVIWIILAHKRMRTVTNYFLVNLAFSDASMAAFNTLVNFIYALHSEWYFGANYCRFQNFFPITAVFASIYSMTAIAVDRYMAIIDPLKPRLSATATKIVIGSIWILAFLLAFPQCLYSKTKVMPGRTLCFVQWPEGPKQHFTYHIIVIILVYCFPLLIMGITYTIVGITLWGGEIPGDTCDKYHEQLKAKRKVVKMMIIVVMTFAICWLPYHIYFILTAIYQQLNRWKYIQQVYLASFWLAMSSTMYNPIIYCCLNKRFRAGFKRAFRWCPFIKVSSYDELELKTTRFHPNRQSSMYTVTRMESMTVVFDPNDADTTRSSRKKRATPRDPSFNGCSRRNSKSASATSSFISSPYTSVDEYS
Protocol: as §1, §2

[13] = target: opioid (mOP) (Homo sapiens, UniProt P35372); experiment: off-target selectivity panel; assay type: binding
Sequence of opioid (mOP) (P35372 whole entry): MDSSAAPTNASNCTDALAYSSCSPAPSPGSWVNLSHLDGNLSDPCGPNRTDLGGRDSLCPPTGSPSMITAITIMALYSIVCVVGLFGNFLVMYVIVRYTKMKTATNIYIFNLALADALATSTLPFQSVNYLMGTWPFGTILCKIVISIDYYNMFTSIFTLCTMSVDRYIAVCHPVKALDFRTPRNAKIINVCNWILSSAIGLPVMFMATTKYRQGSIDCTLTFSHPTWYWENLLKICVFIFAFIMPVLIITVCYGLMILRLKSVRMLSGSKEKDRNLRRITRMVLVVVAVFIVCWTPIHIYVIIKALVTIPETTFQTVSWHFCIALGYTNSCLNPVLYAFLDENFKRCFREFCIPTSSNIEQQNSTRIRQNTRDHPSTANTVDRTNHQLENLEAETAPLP
Protocol: as §1, §2

[14] = target: cholecystokinin receptor 1 (CCK1) (Homo sapiens, UniProt P32238); experiment: off-target selectivity panel; assay type: binding
Sequence of cholecystokinin receptor 1 (CCK1) (P32238 whole entry): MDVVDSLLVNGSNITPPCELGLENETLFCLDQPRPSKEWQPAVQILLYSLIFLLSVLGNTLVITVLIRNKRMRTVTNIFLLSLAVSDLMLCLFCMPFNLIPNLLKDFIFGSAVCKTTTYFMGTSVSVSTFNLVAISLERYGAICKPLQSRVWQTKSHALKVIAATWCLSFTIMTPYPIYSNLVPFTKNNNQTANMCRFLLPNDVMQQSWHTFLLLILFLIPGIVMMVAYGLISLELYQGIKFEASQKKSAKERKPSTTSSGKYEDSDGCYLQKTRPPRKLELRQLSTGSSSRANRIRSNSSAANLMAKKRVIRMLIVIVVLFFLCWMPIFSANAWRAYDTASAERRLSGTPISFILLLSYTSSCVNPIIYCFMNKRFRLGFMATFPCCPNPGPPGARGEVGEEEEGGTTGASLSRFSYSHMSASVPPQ
Protocol: as §1, §2

[15] = target: serotonin receptor 5HT-1A (Homo sapiens, UniProt P08908); experiment: off-target selectivity panel; assay type: binding
Sequence of serotonin receptor 5HT-1A (P08908 whole entry): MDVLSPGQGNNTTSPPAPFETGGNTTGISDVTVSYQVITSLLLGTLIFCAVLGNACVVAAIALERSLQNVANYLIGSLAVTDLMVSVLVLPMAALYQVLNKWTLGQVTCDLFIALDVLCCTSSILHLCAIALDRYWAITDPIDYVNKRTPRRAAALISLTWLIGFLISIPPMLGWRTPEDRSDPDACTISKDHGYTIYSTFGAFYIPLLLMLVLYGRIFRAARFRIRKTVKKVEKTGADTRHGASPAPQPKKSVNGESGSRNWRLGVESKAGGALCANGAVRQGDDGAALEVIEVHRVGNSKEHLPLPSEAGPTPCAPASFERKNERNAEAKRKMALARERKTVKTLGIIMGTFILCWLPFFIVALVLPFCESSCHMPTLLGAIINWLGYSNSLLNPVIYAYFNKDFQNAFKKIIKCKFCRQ
Protocol: as §1, §2

[16] = tested on: guinea pigs; experiment: dermal sensitization range-finding pilot sub-study; assay type: in vivo, guinea pig; details: topical 50 μl, 200, 400, or 797 μM
Protocol: A GLP-compliant dermal sensitization study was conducted with LPT99 in guinea pigs. The objective was to assess potential dermal sensitization of LPT99 using the Buehler test (Buehler, Arch Dermatol. 1965, 91, 171-7).
The test article, LPT99, was in a neutral-pH, buffered, isotonic solution containing a thermoreversible compound. The vehicle control was buffered at neutral pH and formulated as for the test article; it contained POLOXAMER® 407, disodium phosphate dodecahydrate hydrogen, sodium dihydrogen phosphate dihydrate, sodium chloride, and water for injection.
In the range-finding pilot substudy, 4 guinea pigs (2 males and 2 females; Charles River, Stone Ridge, N.Y.) were dosed.

Q: For `COc1ccc2[nH]cc(CCNC(=O)CC3C(=O)N(CCc4ccc(Cl)cc4Cl)CC(=O)N3CCc3cccs3)c2c1` (stereo not shown) [LPT99, 2-(4-(2,4-dichlorophenethyl)-3,6-dioxo-1-(2-(thiophen-2-yl)ethyl)piperazin-2-yl)-N-(2-(5-methoxy-1H-indol-3-yl)ethyl)acetamide], which “in vitro inhibition, 41 of the tested targets” value [1] is on record?
A: < 50%

Q: What about the inhibition at 1 µM ([2]; 1 μM) of the same compound?
A: < 50%

Q: And the inhibition at 10 µM ([2]; 10 μM, read-out: affinity (inhibition) 5HT-2A)?
A: > 50%

Q: And the inhibition at 1 µM ([3]; 1 μM)?
A: < 50%

Q: And the inhibition at 10 µM ([3]; 10 μM, read-out: affinity (inhibition) 5HT-2B)?
A: > 50%

Q: What about the “inhibition C1-GABA-gated channel” value ([4]; 1 μM) of the same compound?
A: < 50%

Q: And the “affinity (inhibition) C1-GABA-gated channel” value ([4]; 10 μM)?
A: > 50%

Q: What about the “inhibition Na+channel site 2” value ([5]; 1 μM) of the same compound?
A: < 50%

Q: And the “affinity (inhibition) Na+channel site 2” value ([5]; 10 μM)?
A: > 50%

Q: And the inhibition at 1 µM ([6]; 1 μM)?
A: < 50%

Q: What about the inhibition at 10 µM ([6]; 10 μM, read-out: affinity (inhibition) A3) of the same compound?
A: > 50%

Q: What about the inhibition at 1 µM ([7]; 1 μM) of the same compound?
A: < 50%

Q: And the inhibition at 10 µM ([7]; 10 μM, read-out: affinity (inhibition) NK2)?
A: > 50%

Q: And the inhibition at 0.1 µM ([8]; 0.1 μM)?
A: 6%

Q: And the inhibition at 1 µM ([8]; 1 μM)?
A: 53%

Q: And the inhibition at 10 µM ([8]; 10 μM, read-out: affinity (inhibition) MT1)?
A: > 50%

Q: What about the inhibition at 1 µM ([9]; 1 μM) of the same compound?
A: < 50%

Q: What about the inhibition at 10 µM ([9]; 10 μM, read-out: affinity (inhibition) 5HT-7) of the same compound?
A: > 50%

Q: What about the inhibition at 1 µM ([10]; 1 μM) of the same compound?
A: < 50%

Q: What about the inhibition at 10 µM ([10]; 10 μM, read-out: affinity (inhibition) kOP) of the same compound?
A: > 50%

Q: And the inhibition at 1 µM ([11]; 1 μM)?
A: < 50%

Q: What about the inhibition at 10 µM ([11]; 10 μM, read-out: affinity (inhibition) ViA) of the same compound?
A: > 50%

Q: And the inhibition at 1 µM ([12]; 1 μM)?
A: < 50%

Q: What about the inhibition at 10 µM ([12]; 10 μM, read-out: affinity (inhibition) NK3) of the same compound?
A: > 50%

Q: What about the inhibition at 1 µM ([13]; 1 μM) of the same compound?
A: < 50%

Q: What about the inhibition at 10 µM ([13]; 10 μM, read-out: affinity (inhibition) mOP) of the same compound?
A: > 50%

Q: And the inhibition at 1 µM ([14]; 1 μM)?
A: < 50%

Q: And the inhibition at 10 µM ([14]; 10 μM, read-out: affinity (inhibition) CCK1)?
A: > 50%

Q: And the inhibition at 1 µM ([15]; 1 μM)?
A: < 50%

Q: What about the inhibition at 10 µM ([15]; 10 μM, read-out: affinity (inhibition) 5HT-1A) of the same compound?
A: > 50%

Q: And the “Draize scores (erythema and edema)” value [16]?
A: 0
